Assay results as given in US10533032B2, “Crystalline form of benzylbenzene SGLT2 inhibitor” (THERACOS SUB, LLC, priority 2010, dated 2020).
Where “and” joins values, the source holds several entries; their conditions need not be identical. Equal values may be shown once.

Key:
[1] = Hygroscopicity test of crystalline compound 8 powder in desiccators over saturated salt solutions (weight increase, appearance); format: physicochemical; conditions: for Weight Increase: individual samples 1-3, listed as crystal compound 8
Experimental: The tendency toward hygroscopicity of crystalline compound 8 in powder form was tested at 75% and 92.5% relative humidity at 25° C. for up to 10 days. Reagents included: (1) water: in house, MilliQ, 18.2MΩ; (2) NaCl: AR grade; (3) KNO3: AR grade; (4) saturated NaC solution with extra NaCl solid for 25 OC/75% RH control; and (5) saturated KNO3 solution with extra KNO3 solid for 25 OC/92.5% RH control. Equipment used included (1) desiccators, 240 mm ID; and (2) weighing bottles with lids: 50 mm ID×30 mm height. The saturated salt solutions and solids were transferred into individual desiccators, and equilibrated at 25° C. at least overnight to reach the desired relative humidity readings. Four weighing bottles were placed into each desiccator, and equilibrated overnight. The empty weighing bottles were weighed and the tare weights recorded (W1). 0.5 g of crystalline compound 8 was added into three weighing bottles in each desiccator to form a thin layer with thickness of 1-2 mm. The sample weight in each bottle (W2) was recorded. One empty weighing bottle was used for blank calibration. The bottles were left in each desiccator with lids open. The lids were closed and each bottle accurately weighed on days 1, 5 and 10 (W3). The bottles were returned to each desiccator with lids open immediately after weighing. The following formula was used to calculate the weight increase: [formula] WB=the weight increase of empty weighing bottle.

[2] = format: physicochemical
Source text: The crystalline compound of the present invention is also characterized by the unit cell data substantially in accordance with FIG. 7. Thermal gravimetric analysis (TGA) can also be used to characterize the crystalline compound of the present invention.

[3] = Hygroscopicity test of crystalline compound 8 powder in desiccators over saturated salt solutions (weight increase, appearance); format: physicochemical; conditions: for Weight Increase, Average: average of 3 samples; for Weight Increase: individual samples 1-3, listed as crystal compound 8

OC[C@H]1O[C@@H](c2ccc(Cl)c(Cc3ccc(OCCOC4CC4)cc3)c2)[C@H](O)[C@@H](O)[C@@H]1O [crystalline compound 8, (2S,3R,4R,5S,6R)-2-(4-chloro-3-(4-(2-cyclopropoxyethoxy)benzyl)phenyl)-6-(hydroxymethyl)tetrahydro-2H-pyran-3,4,5-triol]
Weight Increase, Average ([1]; 25° C./75% RH, 1 day, average of 3 samples): 0.2447% | Weight Increase ([1]; 25° C./75% RH, 1 day): 0.3291% and 0.235% and 0.1698% | Weight Increase ([1]; 25° C./75% RH, 5 days): 0.1051% and 0.1995% and 0.1578% | Weight Increase ([1]; 25° C./75% RH, 10 days): 0.3509% and 0.2311% and 0.1957% | Appearance ([1]; 25° C./75% RH, after 5 days): White powder | Appearance ([1]; 25° C./75% RH, after 10 days): White powder | hygroscopicity ([1]; powder form, at the study conditions (75% and 92.5% RH, 25° C., up to 10 days)): low hygroscopicity | weight increases ([1]; powder samples at 75% and 92.5% relative humidity at 25° C. for 10 days): below 0.26% | thermal stability (TGA) [2]: above 200 °C | Weight Increase, Average ([3]; 25° C./75% RH, 5 days): 0.1541% | Weight Increase, Average ([3]; 25° C./75% RH, 10 days): 0.2593% | Appearance ([3]; 25° C./75% RH, after 1 day): White powder | Weight Increase, Average ([3]; 25° C./92.5% RH, 1 day): 0.119% | Weight Increase ([3]; 25° C./92.5% RH, 1 day): 0.05362% and 0.1036% and 0.1998% | Weight Increase, Average ([3]; 25° C./92.5% RH, 5 days): 0.1627% | Weight Increase ([3]; 25° C./92.5% RH, 5 days): 0.0417% and 0.2071% and 0.2394% | Weight Increase, Average ([3]; 25° C./92.5% RH, 10 days): 0.2295% | Weight Increase ([3]; 25° C./92.5% RH, 10 days): 0.2601% and 0.1633% and 0.2651% | Appearance ([3]; 25° C./92.5% RH, after 1 day): White powder | Appearance ([3]; 25° C./92.5% RH, after 5 days): White powder | Appearance ([3]; 25° C./92.5% RH, after 10 days): White powder
